Patent publication US6518303B2, “2-phenylpyran-4-one derivatives” (Almirall Prodesfarma S.A., priority 1999, dated 2003)

Experiments:
[1] = molecular target: T1, COX-1 (Homo sapiens, UniProt P23219); test: COX-1 activity in human whole blood (TXB2, calcium ionophore A23187); type: cell-based; details: 1 h at 37° C., TXB2 ELISA
T1 construct: Fresh blood from healthy volunteers; endogenous in cells; host or cells: fresh heparinized human whole blood stimulated with calcium ionophore A23187
Experimental: For the COX-1 activity determination, 500 μl aliquots of blood were incubated with either 5 μl vehicle (dimethylsulphoxide) or 5 μl of a test compound for 1 h at 37° C. […] Plasma was separated by centrifugation (10 min at 13000 rpm) and kept at −30° C. until TXB2 levels were measured using an enzyme immunoassay kit (ELISA). The effect of the compounds were evaluated by incubating each compound at five to six different concentrations with triplicate determinations. IC50 values were obtained by non-linear regression using InPlot, GraphPad software on an IBM computer.

[2] = test system: adjuvant arthritis (hind paw volume) in male Wistar rats; test: Anti-inflammatory activity (adjuvant arthritis); type: in vivo, rat; details: dose 1 mg/kg p.o. once daily for 7 days (days 14-20), measured day 21
[3] = molecular target: T2, COX-2 (Homo sapiens, UniProt P35354); test: COX-2 activity in human whole blood (PGE2, LPS-induced); type: cell-based; details: for IC50: human whole blood, LPS 10 μg/ml 24 h at 37° C., PGE2 ELISA; for Ratio COX-1/COX-2: ratio of whole blood IC50 values
T2 construct: incubated in the presence of LPS (10 μg/ml) for 24 h at 37° C. in order to induce The COX-2 expression; endogenous in cells; host or cells: fresh heparinized human whole blood, COX-2 induced with LPS for 24 h
T2 sequence (P35354 18-604): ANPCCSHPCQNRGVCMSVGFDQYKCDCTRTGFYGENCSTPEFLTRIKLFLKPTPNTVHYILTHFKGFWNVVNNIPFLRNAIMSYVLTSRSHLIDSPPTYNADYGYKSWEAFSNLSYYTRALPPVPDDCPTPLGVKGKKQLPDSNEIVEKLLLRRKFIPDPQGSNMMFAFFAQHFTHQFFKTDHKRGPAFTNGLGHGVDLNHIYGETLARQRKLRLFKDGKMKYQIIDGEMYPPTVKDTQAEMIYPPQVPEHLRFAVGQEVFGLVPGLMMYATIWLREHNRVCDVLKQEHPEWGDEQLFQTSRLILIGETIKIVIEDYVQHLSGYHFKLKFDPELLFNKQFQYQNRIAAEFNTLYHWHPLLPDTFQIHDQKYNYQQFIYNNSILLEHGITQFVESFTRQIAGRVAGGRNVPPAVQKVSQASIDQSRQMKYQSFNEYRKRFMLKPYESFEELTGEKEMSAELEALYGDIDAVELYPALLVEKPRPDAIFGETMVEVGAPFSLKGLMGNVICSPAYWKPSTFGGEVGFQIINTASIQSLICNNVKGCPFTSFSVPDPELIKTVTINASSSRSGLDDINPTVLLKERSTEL
Experimental: Plasma was separated by centrifugation (10 min at 13000 rpm.) and kept at −30° C. until PGE2 levels were measured using an enzyme immunoassay kit (ELISA). The effects of inhibitors were studied by incubating each compound (5 μl aliquots) at five to six different concentrations with triplicate determinations in the presence of LPS for 24 hours. IC50 values were obtained by non-linear regression using InPlot, GraphPad software on an IBM computer.

[4] = test system: intestinal ulcers and hematocrit in male Wistar rats; test: Ulcerogenic activity; type: in vivo, rat; parameters: key to Lesion index PU (perforated ulcers) / Lesion index NPU (non-perforated ulcers): 0:no ulcers; 1:<10 ulcers; 2:10-25 ulcers; 3:>25 ulcers; details: for Lesion index NPU (non-perforated ulcers) / Lesion index PU (perforated ulcers): index 0 to 3
Experimental: Animals: Male Wistar rate (Interfauna, U.K., Ltd.) weighing about 150-175 g were used. Animals were maintained on a 12:12 hour light-dark cycle (lights on at 7:00 am) at room temperature (22±1° C.). Food and water were allowed ad libitum.
Procedure: The compounds were administered by the oral route once a day for 4 consecutive days. The body weight of each rat was assessed every day before drug administration. The animals were anesthesized 24 h after the last dosing and 1 ml of blood was extracted by cardiac puncture using heparin (10 U/ml) as anticoagulant. The percentage of hematocrit was measured. The intestines were removed, opened longitudinally and gently washed. The macroscopic severity of the intestinal erosions was assessed using a parametric scale, evaluating the number of the perforated and non-perforated intestinal ulcers by means of a lesion index ranging from 0 to 3 (0:no ulcers, 1:<10 ulcers, 2:10-25 ulcers to 3:>25 ulcers). No gastric ulcers are observed using this protocol.
The treatments were randomized in each experiment. The results were compared with those obtained in the vehicle-treated group using the ANOVA test.

[5] = dose 100 mg/kg oral once a day for 4 days
[6] = dose 10 mg/kg oral once a day for 4 days

T1 sequence (P23219 24-599): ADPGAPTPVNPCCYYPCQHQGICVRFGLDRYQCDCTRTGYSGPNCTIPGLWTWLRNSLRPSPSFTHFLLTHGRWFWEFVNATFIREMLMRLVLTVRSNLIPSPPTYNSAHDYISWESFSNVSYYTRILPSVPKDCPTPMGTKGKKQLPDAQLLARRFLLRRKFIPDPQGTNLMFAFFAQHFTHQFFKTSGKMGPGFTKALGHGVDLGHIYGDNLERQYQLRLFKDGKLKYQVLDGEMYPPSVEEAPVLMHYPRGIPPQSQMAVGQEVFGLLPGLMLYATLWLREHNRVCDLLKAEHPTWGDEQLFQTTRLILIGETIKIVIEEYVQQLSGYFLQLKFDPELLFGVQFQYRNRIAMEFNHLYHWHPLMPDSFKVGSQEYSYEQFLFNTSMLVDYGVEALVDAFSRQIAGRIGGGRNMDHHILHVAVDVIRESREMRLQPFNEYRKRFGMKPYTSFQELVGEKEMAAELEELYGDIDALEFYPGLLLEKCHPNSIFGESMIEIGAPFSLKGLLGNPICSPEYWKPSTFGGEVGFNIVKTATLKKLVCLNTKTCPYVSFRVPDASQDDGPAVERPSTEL

| IC50 [1] [nM] | melting point [°C] | IC50 [3] [nM] | Ratio COX-1/COX-2 [3] | Structure (SMILES) | % Inhibition of inflammation (paw volume) [2] | Hematocrit [4, 5] [%] | Lesion index NPU (non-perforated ulcers) [4, 5] | Lesion index PU (perforated ulcers) [4, 5] | Hematocrit [4, 6] [%] | Lesion index NPU (non-perforated ulcers) [4, 6] | Lesion index PU (perforated ulcers) [4, 6] |
| --- | --- | --- | --- | --- | --- | --- | --- | --- | --- | --- | --- |
| > 100000 | 182 | 2100 | >47 | Cc1cc(=O)c(-c2ccc(Cl)cc2)c(-c2ccc(S(C)(=O)=O)cc2)o1 [Compound 5, 3-(4-chlorophenyl)-2-(4-methanesulfonylphenyl)-6-methylpyran-4-one] | 50 (1) % | 44.1 ± 0.7 | 0 | 0 |  |  |  |
| > 100000 |  | 350 | >285 | Cc1cc(=O)c(Oc2ccc(Cl)cc2)c(-c2ccc(S(C)(=O)=O)cc2)o1 [Compound 41] | 71 (1) % | 43.4 ± 1.9 | 0 | 0 |  |  |  |
| 37100 | 156 |  |  | Cc1cc(=O)c(-c2ccc(Cl)c(Cl)c2)c(-c2ccc(S(C)(=O)=O)cc2)o1 [Compound 22, 3-(3,4-dichlorophenyl)-2-(4-methanesulfonylphenyl)-6-methylpyran-4-one] | 69 (1) % | 44.4 ± 0.3 |  |  |  |  |  |
|  |  |  |  | COc1ccc2c(c1)c(CC(=O)O)c(C)n2C(=O)c1ccc(Cl)cc1 [Indomethacin, 1-(4-chlorobenzoyl)-5-methoxy-2-methylindole-3-acetic acid, reference compound] | 64 (1) % |  |  |  | 22.7 ± 1.6 | 3 (3:>25 ulcers) | 3 (3:>25 ulcers) |
| > 100000 | 188 | 800 | 125 | Cc1cc(=O)c(Oc2ccc(Br)cc2)c(-c2ccc(S(C)(=O)=O)cc2)o1 [Compound 43, 3-(4-bromophenoxy)-2-(4-methanesulfonylphenyl)-6-methylpyran-4-one] |  |  |  |  |  |  |  |
| > 100000 | 189 | 960 | >104 | Cc1cc(=O)c(Oc2ccc(F)cc2)c(-c2ccc(S(C)(=O)=O)cc2)o1 [Compound 39, 3-(4-fluorophenoxy)-2-(4-methanesulfonylphenyl)-6-methylpyran-4-one] | 75 (1) % | 43.7 ± 0.4 | 0 | 0 |  |  |  |
| 22000 | 191 | 150 | 147 | Cc1cc(=O)c(Oc2ccc(F)cc2F)c(-c2ccc(S(C)(=O)=O)cc2)o1 [Compound 45, 3-(2,4-difluorophenoxy)-2-(4-methanesulfonylphenyl)-6-methylpyran-4-one] | 74 (1) % | 44.4 ± 0.9 | 0 | 0 |  |  |  |
| > 100000 | 116 | 1670 | >59 | COc1ccc(-c2c(-c3ccc(S(C)(=O)=O)cc3)oc(C)cc2=O)cc1Cl [Compound 31] |  |  |  |  |  |  |  |
| > 100000 | 237 | 1060 | >94 | Cc1cc(=O)c(-c2ccc(F)cc2)c(-c2ccc(S(C)(=O)=O)cc2)o1 [Compound 2, 3-(4-fluorophenyl)-2-(4-methanesulfonylphenyl)-6-methylpyran-4-one] |  |  |  |  |  |  |  |
| > 100000 | 168 to 170 | 2100 | >47 | CS(=O)(=O)c1ccc(-c2oc(C(F)F)cc(=O)c2-c2ccc(Cl)cc2)cc1 [Compound 67, 3-(4-chlorophenyl)-6-difluoromethyl-2-(4-methanesulfonylphenyl)pyran-4-one] |  |  |  |  |  |  |  |
| > 100000 | 136 to 137 | 1500 | >66 | Cc1cc(=O)c(-c2ccccc2F)c(-c2ccc(S(C)(=O)=O)cc2)o1 [Compound 4, 3-(2-fluorophenyl)-2-(4-methanesulfonylphenyl)-6-methylpyran-4-one] |  |  |  |  |  |  |  |
